Reference: US8748568B2, “Isolated A-type FHF N-terminal domain peptides and methods of use” (Research Foundation of The City University of New York, priority 2009, dated 2014)
“Also recorded” adds a separate entry of the source.

Assays:
[1] = test system: TTX-resistant Nav1.6; assay: Voltage dependence of steady state inactivation of Nav1.6 in Neuro2A cells; assay type: cell-based
Experimental: A Neuro2A cell expressing TTX-resistant Nav1.6 and transfected to express FHF2A was analyzed for the voltage dependence of steady state inactivation, long-term inactivation, and activation, using specific voltage command protocols. For steady state inactivation, cells were held at different “test command” voltages for 60 milliseconds followed immediately by further depolarization to 0 mV; the residual peak current derives from channels not inactivated (i.e. still available). For long term inactivation, cells were held at different “test command” voltages for 60 milliseconds, with each test command followed by 40 millisecond recovery at −90 mV before depolarization to 0 mV; peak current derives from channels that have not undergone long-term inactivation. […]
(§1) Neuro2A cells expressing TTX-resistant Nav1.6 were analyzed for TTX-resistant sodium currents following whole cell patch clamp using pipette solution containing peptide corresponding to N-terminal residues 2-21 of FHF2A (referred to as ANTD, for A-type N-terminal domain). Peptide injected cells were subjected to four 16 millisecond depolarization cycles (0 mV) separated by 40 millisecond recovery periods (−90 mV), and peak inward Nav1.6-mediated sodium currents were recorded for each depolarization.

[2] = test system: TTX-resistant Nav1.6; assay: Whole cell voltage clamp of Nav1.6 currents in Neuro2A cells: long-term inactivation through repeated depolarization cycles; assay type: cell-based
Experimental: […]. Nav1.6 currents were analyzed in cells without FHFs (upper panels) or after transient transfection with a DNA vector expressing full-length FHF2A protein (lower panels). The holding voltage was −90 mV. Cells were subjected to two 6 millisecond depolarizations at 0 mV separated by −90 mV interpulse recovery periods of 0.5 to 20 msec (left panels). All 40 command sweeps are shown.
Neuro2A cells expressing TTX-resistant Nav1.6 were transfected with DNA expression vectors for FHF1A, FHF1B, FHF2A, FHF2B, or FHF4B. Transfected cells in the presence of TTX were subjected to four 16 millisecond depolarization cycles (0 mV) separated by 40 millisecond recovery periods (−90 mV), and peak inward Nav1.6-mediated sodium currents were recorded for each depolarization.
A Neuro2A cell expressing TTX-resistant Nav1.6 and transfected to express FHF2A was analyzed for the voltage dependence of steady state inactivation, long-term inactivation, and activation, using specific voltage command protocols. For steady state inactivation, cells were held at different “test command” voltages for 60 milliseconds followed immediately by further depolarization to 0 mV; the residual peak current derives from channels not inactivated (i.e. still available). For long term inactivation, cells were held at different “test command” voltages for 60 milliseconds, with each test command followed by 40 millisecond recovery at −90 mV before depolarization to 0 mV; peak current derives from channels that have not undergone long-term inactivation. For activation, cells were depolarized to different “test command” voltages, and peak inward currents were converted to percent maximum conductance to reflect percentage of channels transiently activated.
as §1

[3] = test system: mutant VGSC in which the fast inactivation particle was disabled (Nav1.6); assay: Long-term inactivation of mutant VGSC with disabled fast inactivation particle, whole cell voltage clamp; assay type: cell-based; conditions: single cycle of membrane depolarization
Experimental: . Nav1.6 currents were analyzed in cells without FHFs (left panels—FIG. 7) or after transient transfection with a DNA vector expressing full-length FHF2A protein (right panels—FIG. 7).

[4] = test system: cerebellar granule neurons; assay: Voltage clamp and current clamp of cultured cerebellar granule neurons; assay type: cell-based, Mouse; conditions: 1 mM peptide injected
Experimental: Mouse cerebellar granule neurons were cultured for 14 days under conditions that promoted their maturation to a fully excitable state. These neurons were Whole cell patched and subjected to voltage clamp and current clamp protocols. In voltage clamp, neurons were depolarized four times for 16 milliseconds to 0 mV with 40 millisecond interpulse recoveries at −90 mV (left panels). In current clamp, positive current injection for 800 milliseconds was used to trigger firing of action potentials. A range of currents were tested, and only the recordings from currents giving highest frequency and amplitude of action potentials are shown (right panels).

[5] = four 16 msec depolarization cycles at 0 mV separated by 40 msec recoveries at -90 mV, cells transfected with FHF expression vector

FHF2A: full-length FHF2A protein, fibroblast growth factor homologous factor, expressed from a transfected DNA vector (AAAIASSLIRQKRQAREREK)
effect on voltage dependence of steady state (fast) inactivation of Nav1.6 [1]: depolarizing shift
percentage of channels that undergo long-term inactivation ([2]; 60 msec test command, 40 msec recovery at -90 mV, then 0 mV, not increased by further depolarization): 35-40%
long-term inactivation of Nav1.6 [2, 5]: induce long-term inactivation
long-term inactivation of Nav1.6 ([2]; four 16 msec depolarization cycles at 0 mV separated by 40 msec recoveries at -90 mV, cells transfected with FHF expression vector, listed as FHF2A protein): channels accumulate into a long-term inactivated state with each depolarization cycle; also recorded: induces both long-term inactivation
voltage at which long-term inactivation occurs relative to steady state inactivation ([2]; test command voltage protocols, FHF2A-transfected cell): far more depolarized voltage than steady state inactivation
fraction of channels that do not rapidly recover from inactivation ([2]; two 6 msec depolarizations at 0 mV, -90 mV interpulse recovery 0.5 to 20 msec, cells transfected with FHF vector): approximately one-third
channels driven into long-term inactivation [3]: nearly all channels being driven into long-term inactivation

AAAIASSLIRQKRQAREREK [ANTD peptide, peptide corresponding to N-terminal residues 2-21 of FHF2A]
effect on voltage dependence of steady state (fast) inactivation of Nav1.6 [1]: no significant effect
long-term inactivation of Nav1.6 ([2]; 0.5 mM peptide in pipette solution, four 16 msec depolarization cycles, 40 msec recoveries): induced long-term inactivation, albeit to lesser degree
long-term inactivation of Nav1.6 ([2]; 1 mM peptide in pipette solution, four 16 msec depolarization cycles, 40 msec recoveries): robust accumulation into long-term inactivation
dose dependence of peptide-induced long-term inactivation ([2]; 1 mM versus 0.5 mM): dose dependent
onset of long-term inactivation ([2]; 1 millimolar peptide, compared with native protein): faster onset of long-term inactivation than the native protein
action potentials generated upon current injection ([4]; current clamp, 800 msec positive current injection): only a single action potential
inward sodium currents ([4]; voltage clamp, four 16 msec depolarizations to 0 mV, 40 msec recoveries at -90 mV): decrease with each cycle of depolarization
outward potassium currents ([4]; voltage clamp, four depolarization cycles): unaffected
channels driven into long-term inactivation [3]: nearly all

B1: FHF1B: B-type fibroblast growth factor homologous factor expressed from a DNA expression vector (protein)
chain: MESKEPQLKGIVTRLFSQQGYFLQMHPDGTIDGTKDENSDYTLFNLIPVGLRVVAIQGVKASLYVAMNGEGYLYSSDVFTPECKFKESVFENYYVIYSSTLYRQQESGRAWFLGLNKEGQIMKGNRVKKTKPSSHFVPKPIEVCMYREPSLHEIGEKQGRSRKSSGTPTMNGGKVVNQDST
long-term inactivation of Nav1.6 [2, 5]: do not

B2: FHF2B: B-type fibroblast growth factor homologous factor expressed from a DNA expression vector (protein)
chain: MALLRKSYSEPQLKGIVTKLYSRQGYHLQLQADGTIDGTKDEDSTYTLFNLIPVGLRVVAIQGVQTKLYLAMNSEGYLYTSELFTPECKFKESVFENYYVTYSSMIYRQQQSGRGWYLGLNKEGEIMKGNHVKKNKPAAHFLPKPLKVAMYKEPSLHDLTEFSRSGSGTPTKSRSVSGVLNGGKSMSHNEST
long-term inactivation of Nav1.6 [2, 5]: do not

B3: FHF4B: B-type fibroblast growth factor homologous factor expressed from a DNA expression vector (protein)
chain: MVKPVPLFRRTDFKLLLCNHKDLFFLRVSKLLDCFSPKSMWFLWNIFSKGTHMLQCLCGKSLKKNKNPTDPQLKGIVTRLYCRQGYYLQMHPDGALDGTKDDSTNSTLFNLIPVGLRVVAIQGVKTGLYIAMNGEGYLYPSELFTPECKFKESVFENYYVIYSSMLYRQQESGRAWFLGLNKEGQAMKGNRVKKTKPAAHFLPKPLEVAMYREPSLHDVGETVPKPGVTPSKSTSASAIMNGGKPVNKSKTT
long-term inactivation of Nav1.6 [2, 5]: do not
